Reference: patent US12522594B2, “2-heteroaryl-3-oxo-2,3-dihydropyridazine-4-carboxamides for the treatment of cancer” (Deutsches Krebsforschungszentrum, priority 2017, dated 2026)

Tests used:
Type in all cases: cell-based
AHR [1] = molecular target: T1, AHR (Homo sapiens, UniProt P35869); assay: In vitro assay 3: AHR-regulated CYP1A1 expression in human cell line (U937, qPCR, KA stimulation); conditions: U937 cells, 200 uM KA, 6 hours, CYP1A1 expression by qPCR; read-out: Assay 3: Hum CYP1A1 Antagonism IC50
T1 sequence (P35869 11-848): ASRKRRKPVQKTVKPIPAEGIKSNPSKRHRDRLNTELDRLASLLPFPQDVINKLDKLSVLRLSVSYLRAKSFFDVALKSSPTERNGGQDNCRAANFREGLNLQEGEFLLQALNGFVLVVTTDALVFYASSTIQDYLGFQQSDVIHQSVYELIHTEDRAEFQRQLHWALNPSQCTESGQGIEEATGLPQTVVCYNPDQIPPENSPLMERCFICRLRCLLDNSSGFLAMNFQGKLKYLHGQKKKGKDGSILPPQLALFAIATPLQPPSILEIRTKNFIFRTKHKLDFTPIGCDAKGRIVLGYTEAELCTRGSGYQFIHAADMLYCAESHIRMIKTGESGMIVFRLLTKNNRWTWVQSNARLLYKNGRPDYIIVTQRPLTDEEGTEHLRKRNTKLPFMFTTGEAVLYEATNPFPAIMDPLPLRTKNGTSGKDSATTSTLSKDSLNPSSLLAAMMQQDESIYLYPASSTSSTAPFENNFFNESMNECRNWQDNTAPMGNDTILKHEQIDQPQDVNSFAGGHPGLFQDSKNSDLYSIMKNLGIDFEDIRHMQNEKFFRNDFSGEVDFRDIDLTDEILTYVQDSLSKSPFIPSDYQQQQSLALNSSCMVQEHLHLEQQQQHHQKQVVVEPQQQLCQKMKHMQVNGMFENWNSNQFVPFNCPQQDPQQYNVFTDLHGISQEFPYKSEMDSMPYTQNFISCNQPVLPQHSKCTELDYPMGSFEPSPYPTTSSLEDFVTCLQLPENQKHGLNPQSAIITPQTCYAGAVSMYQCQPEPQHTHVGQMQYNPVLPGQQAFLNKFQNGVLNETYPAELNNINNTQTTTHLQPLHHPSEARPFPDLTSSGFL
Method: In Vitro Assay 3: AHR-Regulated CYP1A1 Expression in Human Cell Line
To assess the AHR inhibitory activity of the substances described in this application, the ability thereof to antagonise ligand-induced AHR gene regulation in a dose-dependent manner was quantified. For this purpose, quantitative PCR analysis was used to determine expression of the AHR-regulated gene CYP1A1 in a human monocytic U937 cell line upon stimulation with 200 uM KA in the presence and absence of AHR inhibitor. […] CYP1A1 expression was induced with 200 uM KA (positive control) in the presence or absence of the substances for 6 hours. Human U937 cells were typically incubated with eight different concentrations of the substances (1 nM, 3 nM, 10 nM, 30 nM, 100 nM, 300 nM, 1 uM and 3 uM) and analyzed in duplicate on the same microtitre plate. […] Unstimulated cells were used as the negative control. Taqman probes for human CYP1A1 (Hs01054797_g1) and human HPRT (Hs02800695_m1) were used to analyze fold expression of CYP1A1 of HPRT. Quantitation was performed on a Taqman SDS7900HT.

AHR [2] = molecular target: T1, AHR; assay: In vitro assay 1: antagonism in human cell line (transactivation assay, U87 cells prestimulated with kynurenic acid, DRE firefly luciferase reporter); design: host or cells: U87 glioblastoma cells, stably transfected with DRE firefly luciferase and renilla reporter constructs; conditions: 150 uM kynurenic acid, 20 hours, read-out: Assay 1: AHR-luc Hum Antagonism IC50
Procedure, shortened: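 U87 glioblastoma cells with endogenous AHR, stably carrying a DRE-driven firefly luciferase reporter and a constitutive renilla reporter. Cells prestimulated with the AHR agonist kynurenic acid before compound addition; data normalized to positive and negative controls.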

AHR [3] = molecular target: T1, AHR; assay: In vitro assay 2: agonism in human cell line (transactivation assay, U87 cells, DRE firefly luciferase reporter); design: host or cells: U87 glioblastoma cells, stably transfected with DRE firefly luciferase and renilla reporter constructs; conditions: no kynurenic acid, 20 hours, read-out: Assay 2: AHR-luc Hum Agonism IC50
Procedure, shortened: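 U87 glioblastoma cells with endogenous AHR, stably carrying DRE-driven firefly luciferase and constitutive renilla reporters. 300 uM kynurenic acid served as positive activation control; data normalized to positive and negative controls.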

Row | Structure (SMILES) | IC50 (AHR [1]) | IC50 (AHR [2]) | IC50 (AHR [3])
1 | O=C(NC(CO)C(F)(F)F)c1cc(-c2ccc(Cl)cc2)nn(-c2cccnc2)c1=O (racemic) [Example 76, 6-(4-Chlorophenyl)-3-oxo-2-(pyridin-3-yl)-N-[(2RS)-1,1,1-trifluoro-3-hydroxypropan-2-yl]-2,3-dihydropyridazine-4-carboxamide] | 13.8 nM | 11.9 nM | > 20000 nM
2 | O=C(NC(CO)C1CC1)c1cc(-c2ccc(Cl)cc2)nn(-c2cccnc2)c1=O (racemic) [Example 77, 6-(4-Chlorophenyl)-N-[(1RS)-1-cyclopropyl-2-hydroxyethyl]-3-oxo-2-(pyridin-3-yl)-2,3-dihydropyridazine-4-carboxamide] | 8.7 nM | 11.2 nM | > 20000 nM
3 | O=C(NCC(O)C(F)(F)F)c1cc(-c2ccc(Cl)cc2)nn(-c2cccnc2)c1=O (racemic) [Example 78, 6-(4-Chlorophenyl)-3-oxo-2-(pyridin-3-yl)-N-[(2RS)-3,3,3-trifluoro-2-hydroxypropyl]-2,3-dihydropyridazine-4-carboxamide] | 4.81 nM | 6.68 nM | > 20000 nM
4 | Cn1cc(-n2nc(-c3ccc(Cl)cc3)cc(C(=O)N[C@@H]3CCC[C@]3(C)O)c2=O)cn1 (relative stereo) [Example 317, 6-(4-Chlorophenyl)-N-[(cis)-2-hydroxy-2-methylcyclopentyl]-2-(1-methyl-1H-pyrazol-4-yl)-3-oxo-2,3-dihydropyridazine-4-carboxamide] | 37.3 nM | 30.3 nM | > 20000 nM
5 | Cc1ccc(-c2cc(C(=O)NC(CO)C(C)C)c(=O)n(-c3cnn(C)c3)n2)cc1 (single isomer, unassigned) [Example 2, N-(1-Hydroxy-3-methylbutan-2-yl)-6-(4-methylphenyl)-2-(1-methyl-1H-pyrazol-4-yl)-3-oxo-2,3-dihydropyridazine-4-carboxamide] | 3.03 nM | 2.57 nM | > 20000 nM
6 | O=C(N[C@H]1COC[C@H]1O)c1cc(-c2ccc(Cl)cc2)nn(-c2cccnc2)c1=O (single isomer, unassigned) [Example 172, 6-(4-chlorophenyl)-N-[(cis)-4-hydroxytetrahydrofuran-3-yl]-3-oxo-2-(pyridin-3-yl)-2,3-dihydropyridazine-4-carboxamide] | 23.4 nM | 29.5 nM | > 20000 nM
7 | O=C(N[C@H]1COC[C@H]1O)c1cc(-c2ccc(Cl)cc2)nn(-c2cccnc2)c1=O (single isomer, unassigned) [Example 173, 6-(4-Chlorophenyl)-N-[(cis)-4-hydroxytetrahydrofuran-3-yl]-3-oxo-2-(pyridin-3-yl)-2,3-dihydropyridazine-4-carboxamide] | 140 nM | 54.9 nM | > 20000 nM
8 | O=C(N[C@@H]1CC[C@@H]1O)c1cc(-c2ccc(C(F)(F)F)cc2)nn(-c2cccnc2)c1=O (single isomer, unassigned) [Example 217, (+)-N-cis-2- Hydroxycyclobutyl-3-oxo-2-(pyridin-3-yl)-6-[4-(trifluoromethyl)phenyl]-2,3-dihydropyridazine-4-carboxamide] | 7.01 nM | 2.44 nM | > 20000 nM
9 | Cn1cc(-n2nc(-c3ccc(C(F)(F)F)cc3)cc(C(=O)N[C@@H]3COC[C@@H]3O)c2=O)cn1 (single isomer, unassigned) [Example 218, (+)-N-cis-4- Hydroxytetrahyd rofuran-3-yl-2-(1-methyl-1H-pyrazol-4-yl)-3-oxo-6-[4-(trifluoromethyl)phenyl]-2,3-dihydropyridazine-4-carboxamide] | 4.01 nM | 2.78 nM | > 20000 nM
10 | O=C(N[C@@H]1COC[C@@H]1O)c1cc(-c2ccc(C(F)(F)F)cc2)nn(-c2cccnc2)c1=O (single isomer, unassigned) [Example 229, (+)-N-cis-4-Hydroxytetra-hydrofuran-3-yl-3-oxo-2-(pyridin-3-yl)-6-[4-(trifluoromethyl)phenyl]-2,3-dihydropyridazine-4-carboxamide] | 12.2 nM | 7.09 nM | > 20000 nM
11 | Cn1cc(-n2nc(-c3ccc(C(F)(F)F)cc3)cc(C(=O)N[C@@H]3COC[C@@H]3O)c2=O)cn1 (single isomer, unassigned) [Example 231, (−)-N-cis-4-Hydroxytetra-hydrofuran-3-yl-2-(1-methyl-1H-pyrazol-4-yl)-3-oxo-6-[4-(trifluoromethyl)phenyl]-2,3-dihydropyridazine-4-carboxamide] | 9.93 nM | 7.89 nM | > 20000 nM
12 | Cn1cc(-n2nc(-c3ccc(C(F)F)cc3)cc(C(=O)N[C@@H]3COC[C@@H]3O)c2=O)cn1 (single isomer, unassigned) [Example 315, 6-[4-(Difluoromethyl)phenyl]-N-[(cis)-4-hydroxytetrahydro-furan-3-yl]-2-(1-methyl-1H-pyrazol-4-yl)-3-oxo-2,3-dihydropyridazine-4-carboxamide] | 11.9 nM | 15.9 nM | > 20000 nM
13 | Cn1cc(-n2nc(-c3ccc(Cl)cc3)cc(C(=O)NCC(O)C(F)(F)F)c2=O)cn1 (single isomer, unassigned; (+)) [Example 20, (+)-6-(4-Chlorophenyl)-2-(1-methyl-1H-pyrazol-4-yl)-3-oxo-N-(3,3,3-trifluoro-2-hydroxypropyl)-2,3-dihydropyridazine-4-carboxamide] | 63.1 nM | 26.7 nM | > 20000 nM
14 | O=C(NCC(O)C(F)(F)F)c1cc(-c2ccc(Cl)cc2)nn(-c2cccnc2)c1=O (single isomer, unassigned; (+)) [Example 90, (+)-6-(4-Chlorophenyl)-3-oxo-2-(pyridin-3-yl)-N-(3,3,3-trifluoro-2-hydroxypropyl)-2,3-dihydropyridazine-4-carboxamide] | 40.2 nM | 21.7 nM | > 20000 nM
15 | Cn1cc(-n2nc(-c3ccc(Cl)cc3)cc(C(=O)NCC(O)C(F)(F)F)c2=O)cn1 (single isomer, unassigned; (-)) [Example 19, (−)-6-(4-Chlorophenyl)-2-(1-methyl-1H-pyrazol-4-yl)-3-oxo-N-(3,3,3-trifluoro-2-hydroxypropyl)-2,3-dihydropyridazine-4-carboxamide] | 6.43 nM | 3.92 nM | > 20000 nM
16 | O=C(NCC(O)C(F)F)c1cc(-c2ccc(Cl)cc2)nn(-c2cccnc2)c1=O (single isomer, unassigned; (-)) [Example 87, (−)-6-(4-Chlorophenyl)-N-(3,3-difluoro-2-hydroxypropyl)-3-oxo-2-(pyridin-3-yl)-2,3-dihydropyridazine-4-carboxamide] | 21.5 nM | 29.6 nM | > 20000 nM
17 | CC(C)(O)CNC(=O)c1cc(-c2ccc(C(F)(F)F)nc2)nn(-c2cncc(F)c2)c1=O [Example 344, 2-(5-Fluoropyridin-3-yl)-N-(2-hydroxy-2-methylpropyl)-3-oxo-6-[6-(trifluoromethyl)pyridin-3-yl]-2,3-dihydropyridazine-4-carboxamide] |  | 174 nM | > 20000 nM
18 | C[C@@H](CO)NC(=O)c1cc(-c2ccc(C(F)(F)F)cn2)nn(-c2cccnc2)c1=O [Example 345, N-[(2S)-1-Hydroxypropan-2-yl]-3-oxo-2-(pyridin-3-yl)-6-[5-(trifluoromethyl)pyridin-2-yl]-2,3-dihydropyridazine-4-carboxamide] |  | 55.3 nM | > 20000 nM
